ChEMBL document CHEMBL4431390, “Dual action Smac mimetics-zinc chelators as pro-apoptotic antitumoral agents” (Bioorg Med Chem Lett, 2016)
Calls of active or inactive are those of the source. The rule behind the calls is not given here.

Key:
[1] = Metal chelating activity assessed as compound-Zn2+ complex formation at 50 uM after 15 mins by spectrofluorimetric analysis; type: functional
[2] = Metal chelating activity assessed as compound-Zn2+ complex formation; type: functional
[3] = molecular target: T1, E3 ubiquitin-protein ligase XIAP (Homo sapiens, UniProt P98170); assay: Binding affinity to XIAP BIR3 domain in Smac mimetic-sensitive human MDA-MB-231 cells assessed as increase in cellular IAP1 degradation at 5 uM after 24 hrs by Western blot analysis; type: cell-based
T1 sequence (P98170 whole entry, the tested form may be a part): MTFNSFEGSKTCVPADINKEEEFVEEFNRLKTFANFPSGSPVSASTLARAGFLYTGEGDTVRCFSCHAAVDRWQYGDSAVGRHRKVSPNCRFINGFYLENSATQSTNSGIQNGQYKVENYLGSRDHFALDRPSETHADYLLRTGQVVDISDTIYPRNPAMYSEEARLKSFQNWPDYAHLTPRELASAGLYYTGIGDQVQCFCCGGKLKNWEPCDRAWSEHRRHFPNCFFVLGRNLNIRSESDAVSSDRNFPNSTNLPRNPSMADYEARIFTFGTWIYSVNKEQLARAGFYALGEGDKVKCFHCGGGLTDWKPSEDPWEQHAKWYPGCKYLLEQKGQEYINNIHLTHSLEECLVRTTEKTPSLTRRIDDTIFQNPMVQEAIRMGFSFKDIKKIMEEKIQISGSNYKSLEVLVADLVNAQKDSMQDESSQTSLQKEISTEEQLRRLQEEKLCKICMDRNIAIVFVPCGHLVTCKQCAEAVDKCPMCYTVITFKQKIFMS

[4] = molecular target: T1, E3 ubiquitin-protein ligase XIAP; assay: Displacement of FITC-Smac from human recombinant His-tagged XIAP BIR3 domain (241 to 356 residues) expressed in Escherichia coli BL21(DE3) cells after 3 hrs by fluorescence polarization assay
[5] = molecular target: T1, E3 ubiquitin-protein ligase XIAP; assay: Binding affinity to XIAP BIR3 domain in Smac mimetic-sensitive human MDA-MB-231 cells assessed as increase in cleaved PARP expression at 5 uM after 24 hrs by Western blot analysis; type: cell-based
[6] = molecular target: T1, E3 ubiquitin-protein ligase XIAP; assay: Binding affinity to XIAP BIR3 domain in Smac mimetic-sensitive human MDA-MB-231 cells assessed as increase in cleaved caspase-3 expression at 5 uM after 24 hrs by Western blot analysis; type: cell-based
[7] = molecular target: T1, E3 ubiquitin-protein ligase XIAP; assay: Binding affinity to XIAP BIR3 domain in Smac mimetic-resistant human MDA-MB-453 cells assessed as increase in cleaved caspase-3 expression at 5 uM after 24 hrs by Western blot analysis; type: cell-based
[8] = molecular target: T1, E3 ubiquitin-protein ligase XIAP; assay: Binding affinity to XIAP BIR3 domain in Smac mimetic-resistant human MDA-MB-453 cells assessed as increase in cellular IAP1 degradation at 5 uM after 24 hrs by Western blot analysis; type: cell-based
[9] = molecular target: T1, E3 ubiquitin-protein ligase XIAP; assay: Binding affinity to XIAP BIR3 domain in Smac mimetic-resistant human MDA-MB-453 cells assessed as increase in cleaved PARP expression at 5 uM after 24 hrs by Western blot analysis; type: cell-based
[10] = molecular target: T1, E3 ubiquitin-protein ligase XIAP; assay: Binding affinity to XIAP BIR3 domain in Smac mimetic-resistant human BT549 cells assessed as increase in cellular IAP1 degradation at 5 uM after 24 hrs by Western blot analysis
MDA-MB-453 [11] = assay: Effect on XIAP level in Smac mimetic-resistant human MDA-MB-453 cells at 5 uM after 24 hrs by Western blot analysis; type: functional, cell-based
BT-549 [12] = assay: Effect on XIAP level in Smac mimetic-resistant human BT549 cells at 5 uM after 24 hrs by Western blot analysis; type: functional, cell-based
MDA-MB-231 [13] = assay: Effect on XIAP level in Smac mimetic-sensitive human MDA-MB-231 cells at 5 uM after 24 hrs by Western blot analysis; type: functional, cell-based
MDA-MB-453 [14] = assay: Cytotoxicity against Smac mimetic-resistant human MDA-MB-453 cells assessed as growth inhibition after 24 hrs by CellTiter-Glo assay; type: functional, cell-based; details: MDA-MB-453, 24 h
BT-549 [15] = assay: Cytotoxicity against Smac mimetic-resistant human BT549 cells assessed as growth inhibition after 24 hrs by CellTiter-Glo assay; type: functional, cell-based; details: BT-549, 24 h
MDA-MB-231 [16] = assay: Cytotoxicity against Smac mimetic-sensitive human MDA-MB-231 cells assessed as growth inhibition after 24 hrs by CellTiter-Glo assay; type: functional, cell-based; details: MDA-MB-231, 24 h
[17] = molecular target: T1, E3 ubiquitin-protein ligase XIAP; assay: Binding affinity to XIAP BIR3 domain in Smac mimetic-resistant human BT549 cells assessed as increase in cleaved PARP expression at 5 uM after 24 hrs by Western blot analysis
[18] = molecular target: T1, E3 ubiquitin-protein ligase XIAP; assay: Binding affinity to XIAP BIR3 domain in Smac mimetic-resistant human BT549 cells assessed as increase in cleaved caspase-3 expression at 5 uM after 24 hrs by Western blot analysis

SMILES | Activity [1] | Kd [2] | Activity [3] | IC50 [4] | Activity [5] | Activity [6] | Activity [7] | Activity [8] | Activity [9] | Activity [10] | Activity (MDA-MB-453 [11]) | Activity (BT-549 [12]) | Activity (MDA-MB-231 [13]) | IC50 (MDA-MB-453 [14]) | IC50 (BT-549 [15]) | IC50 (MDA-MB-231 [16]) | Activity [17] | Activity [18]
c1ccc(CNCc2ccccn2)nc1 | Active | 210 nM | – | – | – | – | – | – | – | – | – | – | – | – | – | – | – | –
c1ccc(CN(CCN(Cc2ccccn2)Cc2ccccn2)Cc2ccccn2)nc1 | – | 3e-07 nM | – | – | – | – | – | – | – | – | – | – | – | – | – | – | – | –
CC[C@H](NC)C(=O)N[C@@H]1C(=O)N2[C@@H](CC[C@@H]1CNC(=O)c1ccccc1)CC[C@H]2C(=O)N[C@@H](C(=O)NCCN(Cc1ccccn1)Cc1ccccn1)c1ccccc1 | – | – | inactive | > 10 µM | inactive | inactive | – | – | – | – | – | – | – | – | – | – | – | –
CC[C@H](NC)C(=O)N[C@@H]1C(=O)N2[C@@H](CC[C@@H]1CNC(=O)c1ccccc1)CC[C@H]2C(=O)N[C@H](C(=O)N(Cc1ccccn1)Cc1ccccn1)c1ccccc1 | – | – | Active | 0.37 µM | Active | Active | inactive | Active | inactive | – | – | – | – | – | – | – | – | –
C=CCc1cccc(/C=N/NC(=O)[C@@H](NC(=O)[C@@H]2CC[C@@H]3CC[C@H](CCNC(=O)c4ccccc4)[C@H](NC(=O)[C@H](CC)NC)C(=O)N32)c2ccccc2)c1O | – | – | Active | 1.09 µM | Active | Active | inactive | Active | inactive | Active | – | – | – | – | – | – | – | –
C=CCc1cccc(/C=N/NC(=O)CN2CCN(Cc3ccccc3)CC2)c1O [PAC-1] | – | – | inactive | > 10 µM | inactive | inactive | – | – | – | – | inactive | inactive | inactive | 2 µM | 14.3 µM | 4.7 µM | – | –
CC[C@H](NC)C(=O)N[C@@H]1C(=O)N2[C@@H](CC[C@@H]1CNC(=O)c1ccccc1)CC[C@H]2C(=O)N[C@H](C(=O)NCCN(Cc1ccccn1)Cc1ccccn1)c1ccccc1 | – | – | Active | 0.091 µM | Active | Active | inactive | Active | inactive | Active | – | – | – | – | – | – | Active | Active
CC[C@H](NC)C(=O)N[C@@H]1C(=O)N2[C@@H](CC[C@@H]1CNC(=O)c1ccccc1)CC[C@H]2C(=O)NC(c1ccccc1)c1ccccc1 | – | – | Active | – | Active | Active | inactive | Active | inactive | Active | inactive | inactive | inactive | > 25 µM | > 25 µM | 2.3 µM | Active | Active
CC[C@H](NC)C(=O)N[C@@H]1C(=O)N2[C@@H](CC[C@@H]1CNC(=O)c1ccccc1)CC[C@H]2C(=O)N[C@@H](C(=O)N(Cc1ccccn1)Cc1ccccn1)c1ccccc1 | – | – | inactive | > 10 µM | inactive | inactive | – | – | – | – | – | – | – | – | – | – | – | –
CC[C@H](NC)C(=O)N[C@@H]1C(=O)N2[C@@H](CC[C@@H]1CNC(=O)c1ccccc1)CC[C@H]2C(=O)N(Cc1ccccn1)Cc1ccccn1 | – | – | inactive | > 10 µM | inactive | inactive | – | – | – | – | – | – | – | – | – | – | – | –
